Data published in the kinase profiling compilation of Christmann-Franck et al. (2016).

Experiments:
Experiment in all cases: radiometric filter-binding kinase assay, Kinase HotSpot
Settings in all cases: compound 0.5 µM; ATP 10 µM
WNK2 (human) = WNK2 (human) (UniProt Q9Y3S1)
ERBB2 (human) = ERBB2 (human) (UniProt P04626)
CLK2 (human) = CLK2 (human) (UniProt P49760)
FGFR1 (human) = FGFR1 (human) (UniProt P11362)
GRK7 (human) = GRK7 (human) (UniProt Q8WTQ7)
MYLK (human) = MYLK (human) (UniProt Q15746)
FGFR2 (human) = FGFR2 (human) (UniProt P21802)
PRKCZ (human) = PRKCZ (human) (UniProt Q05513)
LCK (human) = LCK (human) (UniProt P06239)
JAK2 JH1 JH2 (human) = JAK2 JH1 JH2 (human) (UniProt O60674)
MAP2K1 (human) = MAP2K1 (human) (UniProt Q02750)
CDK1 CCNA2 (human) = CDK1 CCNA2 (human) (UniProt P06493+P20248)
STK33 (human) = STK33 (human) (UniProt Q9BYT3)
Chain of STK33 (human) (Q9BYT3 whole entry, looked up): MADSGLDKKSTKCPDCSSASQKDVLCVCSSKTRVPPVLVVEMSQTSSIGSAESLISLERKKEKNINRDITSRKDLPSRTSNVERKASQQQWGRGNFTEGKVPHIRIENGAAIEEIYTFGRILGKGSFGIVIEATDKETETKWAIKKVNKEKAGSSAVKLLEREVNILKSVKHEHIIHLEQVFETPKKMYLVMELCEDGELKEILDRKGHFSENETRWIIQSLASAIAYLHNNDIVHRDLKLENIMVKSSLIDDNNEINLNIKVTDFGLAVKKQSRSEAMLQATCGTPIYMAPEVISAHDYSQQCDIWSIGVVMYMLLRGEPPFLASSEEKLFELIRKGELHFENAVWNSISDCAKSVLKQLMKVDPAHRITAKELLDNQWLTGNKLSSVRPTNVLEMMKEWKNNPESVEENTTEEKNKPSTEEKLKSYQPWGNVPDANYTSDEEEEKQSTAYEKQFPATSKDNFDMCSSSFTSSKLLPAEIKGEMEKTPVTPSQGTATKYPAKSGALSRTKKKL

ACVR1B (human) = ACVR1B (human) (UniProt P36896)
ERBB4 (human) = ERBB4 (human) (UniProt Q15303)
DAPK1 (human) = DAPK1 (human) (UniProt P53355)
BRAF (human) = BRAF (human) (UniProt P15056)
OXSR1 (human) = OXSR1 (human) (UniProt O95747)
Chain of OXSR1 (human) (O95747 whole entry, looked up): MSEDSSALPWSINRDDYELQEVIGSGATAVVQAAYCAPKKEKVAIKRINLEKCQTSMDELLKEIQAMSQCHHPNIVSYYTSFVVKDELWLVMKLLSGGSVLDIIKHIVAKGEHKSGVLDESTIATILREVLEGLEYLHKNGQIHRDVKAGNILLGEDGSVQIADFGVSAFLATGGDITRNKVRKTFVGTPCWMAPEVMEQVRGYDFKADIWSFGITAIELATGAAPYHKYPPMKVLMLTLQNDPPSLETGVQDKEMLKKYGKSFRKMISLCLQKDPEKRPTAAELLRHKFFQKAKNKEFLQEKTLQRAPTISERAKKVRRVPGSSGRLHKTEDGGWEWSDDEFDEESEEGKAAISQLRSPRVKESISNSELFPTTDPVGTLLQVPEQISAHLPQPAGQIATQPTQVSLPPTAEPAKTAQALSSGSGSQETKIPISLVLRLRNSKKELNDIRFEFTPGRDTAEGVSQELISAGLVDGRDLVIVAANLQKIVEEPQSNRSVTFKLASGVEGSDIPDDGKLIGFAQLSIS

PTK2B (human) = PTK2B (human) (UniProt Q14289)
PASK (human) = PASK (human) (UniProt Q96RG2)
RPS6KA3 KD1 KD2 (human) = RPS6KA3 KD1 KD2 (human) (UniProt P51812)
[1] = target: TYK2 JH1 catalytic (human) (UniProt P29597)
DDR2 (human) = DDR2 (human) (UniProt Q16832)
NUAK1 (human) = NUAK1 (human) (UniProt O60285)
ROCK2 (human) = ROCK2 (human) (UniProt O75116)
Chain of ROCK2 (human) (O75116 whole entry, looked up): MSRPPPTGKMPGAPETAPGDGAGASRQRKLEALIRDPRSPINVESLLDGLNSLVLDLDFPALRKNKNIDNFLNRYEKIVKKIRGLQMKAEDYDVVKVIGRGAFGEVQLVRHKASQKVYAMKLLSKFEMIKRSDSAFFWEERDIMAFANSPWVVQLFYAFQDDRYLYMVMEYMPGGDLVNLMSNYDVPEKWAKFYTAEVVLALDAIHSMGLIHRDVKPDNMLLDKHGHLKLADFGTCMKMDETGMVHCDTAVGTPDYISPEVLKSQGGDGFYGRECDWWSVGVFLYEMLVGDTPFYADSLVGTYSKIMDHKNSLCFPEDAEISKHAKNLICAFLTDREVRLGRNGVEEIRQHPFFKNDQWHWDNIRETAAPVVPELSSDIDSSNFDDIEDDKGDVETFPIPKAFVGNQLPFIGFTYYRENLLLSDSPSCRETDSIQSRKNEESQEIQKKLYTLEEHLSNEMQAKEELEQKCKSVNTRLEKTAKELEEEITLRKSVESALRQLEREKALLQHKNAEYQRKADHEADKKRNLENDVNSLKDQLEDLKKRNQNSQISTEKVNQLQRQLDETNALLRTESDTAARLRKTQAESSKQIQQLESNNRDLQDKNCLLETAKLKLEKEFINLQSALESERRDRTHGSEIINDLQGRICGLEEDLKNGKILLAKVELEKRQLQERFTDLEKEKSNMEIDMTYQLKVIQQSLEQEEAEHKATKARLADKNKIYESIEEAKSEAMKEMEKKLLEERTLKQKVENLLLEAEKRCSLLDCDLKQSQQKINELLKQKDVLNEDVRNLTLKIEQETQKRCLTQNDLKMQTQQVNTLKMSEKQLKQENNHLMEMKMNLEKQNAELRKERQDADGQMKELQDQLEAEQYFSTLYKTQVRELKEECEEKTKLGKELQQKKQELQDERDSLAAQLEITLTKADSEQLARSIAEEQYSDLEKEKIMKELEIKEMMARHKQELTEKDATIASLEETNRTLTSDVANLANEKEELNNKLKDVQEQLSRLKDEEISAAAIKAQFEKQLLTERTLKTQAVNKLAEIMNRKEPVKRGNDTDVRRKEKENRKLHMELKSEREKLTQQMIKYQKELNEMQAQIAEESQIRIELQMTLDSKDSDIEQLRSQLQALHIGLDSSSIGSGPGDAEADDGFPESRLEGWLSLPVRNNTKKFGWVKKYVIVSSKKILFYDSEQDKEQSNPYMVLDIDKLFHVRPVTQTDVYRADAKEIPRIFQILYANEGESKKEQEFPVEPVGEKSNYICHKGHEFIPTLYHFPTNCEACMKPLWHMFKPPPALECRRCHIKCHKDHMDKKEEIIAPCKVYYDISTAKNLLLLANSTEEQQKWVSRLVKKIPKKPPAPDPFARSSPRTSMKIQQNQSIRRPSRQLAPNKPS

PLK1 (human) = PLK1 (human) (UniProt P53350)
Chain of PLK1 (human) (P53350 whole entry, looked up): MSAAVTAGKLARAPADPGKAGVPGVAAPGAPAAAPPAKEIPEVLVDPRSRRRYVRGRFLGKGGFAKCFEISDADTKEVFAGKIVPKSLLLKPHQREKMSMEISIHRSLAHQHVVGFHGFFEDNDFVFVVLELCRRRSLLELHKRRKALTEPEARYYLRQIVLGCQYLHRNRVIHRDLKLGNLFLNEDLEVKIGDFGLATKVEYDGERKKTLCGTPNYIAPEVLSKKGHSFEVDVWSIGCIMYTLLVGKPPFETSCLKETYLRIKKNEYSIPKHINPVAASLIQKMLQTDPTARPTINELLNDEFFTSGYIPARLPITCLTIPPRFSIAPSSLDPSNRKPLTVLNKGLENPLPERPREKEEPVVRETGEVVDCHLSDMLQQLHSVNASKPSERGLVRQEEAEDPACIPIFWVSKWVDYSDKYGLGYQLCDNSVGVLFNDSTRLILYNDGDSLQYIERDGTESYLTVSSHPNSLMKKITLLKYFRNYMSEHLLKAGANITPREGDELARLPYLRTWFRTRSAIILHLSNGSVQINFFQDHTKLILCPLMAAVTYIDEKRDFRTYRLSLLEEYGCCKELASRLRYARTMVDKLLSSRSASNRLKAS

MAP3K14 (human) = MAP3K14 (human) (UniProt Q99558)
PKN2 (human) = PKN2 (human) (UniProt Q16513)
CAMK1D (human) = CAMK1D (human) (UniProt Q8IU85)
CHUK (human) = CHUK (human) (UniProt O15111)
Chain of CHUK (human) (O15111 whole entry, looked up): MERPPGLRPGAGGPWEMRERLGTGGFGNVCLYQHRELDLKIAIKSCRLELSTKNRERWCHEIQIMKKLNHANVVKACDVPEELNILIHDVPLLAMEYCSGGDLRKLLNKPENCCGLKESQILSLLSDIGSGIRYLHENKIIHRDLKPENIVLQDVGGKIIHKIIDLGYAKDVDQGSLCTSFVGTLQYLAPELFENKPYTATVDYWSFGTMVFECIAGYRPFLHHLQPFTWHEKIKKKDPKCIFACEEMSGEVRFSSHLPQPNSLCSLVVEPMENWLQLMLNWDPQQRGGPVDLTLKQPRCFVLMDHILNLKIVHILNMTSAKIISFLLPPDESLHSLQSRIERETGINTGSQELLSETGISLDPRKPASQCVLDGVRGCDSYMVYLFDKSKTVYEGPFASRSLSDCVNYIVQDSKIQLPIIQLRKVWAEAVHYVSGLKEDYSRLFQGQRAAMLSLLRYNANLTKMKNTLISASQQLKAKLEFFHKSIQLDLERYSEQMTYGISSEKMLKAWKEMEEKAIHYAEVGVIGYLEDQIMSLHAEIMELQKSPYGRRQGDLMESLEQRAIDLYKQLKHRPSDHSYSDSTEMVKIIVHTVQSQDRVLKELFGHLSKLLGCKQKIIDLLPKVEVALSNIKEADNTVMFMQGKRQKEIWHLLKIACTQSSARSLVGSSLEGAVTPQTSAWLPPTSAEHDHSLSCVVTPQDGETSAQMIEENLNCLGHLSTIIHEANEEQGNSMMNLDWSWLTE

MARK2 (human) = MARK2 (human) (UniProt Q7KZI7)
NEK6 (human) = NEK6 (human) (UniProt Q9HC98)
ZAP70 (human) = ZAP70 (human) (UniProt P43403)
CSNK1E (human) = CSNK1E (human) (UniProt P49674)
Chain of CSNK1E (human) (P49674 whole entry, looked up): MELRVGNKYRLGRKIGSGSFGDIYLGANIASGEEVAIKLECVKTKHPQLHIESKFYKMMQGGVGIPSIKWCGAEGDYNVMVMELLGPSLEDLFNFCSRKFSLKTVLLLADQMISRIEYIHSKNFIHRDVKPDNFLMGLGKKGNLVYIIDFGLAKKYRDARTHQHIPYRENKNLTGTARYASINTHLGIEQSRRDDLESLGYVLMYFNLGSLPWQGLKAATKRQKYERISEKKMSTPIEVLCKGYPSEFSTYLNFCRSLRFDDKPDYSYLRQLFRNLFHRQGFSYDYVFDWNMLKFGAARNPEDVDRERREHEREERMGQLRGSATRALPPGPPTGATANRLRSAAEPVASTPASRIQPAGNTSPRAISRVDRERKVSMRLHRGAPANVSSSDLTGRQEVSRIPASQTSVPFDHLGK

AURKB (human) = AURKB (human) (UniProt Q96GD4)
CSNK2A2 (human) = CSNK2A2 (human) (UniProt P19784)
MAP3K11 (human) = MAP3K11 (human) (UniProt Q16584)
PRKCB2 (human) = PRKCB2 (human) (UniProt P05771)
CDK6 CCND1 (human) = CDK6 CCND1 (human) (UniProt Q00534+P24385)
MAPK10 (human) = MAPK10 (human) (UniProt P53779)

Chain of FGFR1 (human) (P11362 whole entry, looked up): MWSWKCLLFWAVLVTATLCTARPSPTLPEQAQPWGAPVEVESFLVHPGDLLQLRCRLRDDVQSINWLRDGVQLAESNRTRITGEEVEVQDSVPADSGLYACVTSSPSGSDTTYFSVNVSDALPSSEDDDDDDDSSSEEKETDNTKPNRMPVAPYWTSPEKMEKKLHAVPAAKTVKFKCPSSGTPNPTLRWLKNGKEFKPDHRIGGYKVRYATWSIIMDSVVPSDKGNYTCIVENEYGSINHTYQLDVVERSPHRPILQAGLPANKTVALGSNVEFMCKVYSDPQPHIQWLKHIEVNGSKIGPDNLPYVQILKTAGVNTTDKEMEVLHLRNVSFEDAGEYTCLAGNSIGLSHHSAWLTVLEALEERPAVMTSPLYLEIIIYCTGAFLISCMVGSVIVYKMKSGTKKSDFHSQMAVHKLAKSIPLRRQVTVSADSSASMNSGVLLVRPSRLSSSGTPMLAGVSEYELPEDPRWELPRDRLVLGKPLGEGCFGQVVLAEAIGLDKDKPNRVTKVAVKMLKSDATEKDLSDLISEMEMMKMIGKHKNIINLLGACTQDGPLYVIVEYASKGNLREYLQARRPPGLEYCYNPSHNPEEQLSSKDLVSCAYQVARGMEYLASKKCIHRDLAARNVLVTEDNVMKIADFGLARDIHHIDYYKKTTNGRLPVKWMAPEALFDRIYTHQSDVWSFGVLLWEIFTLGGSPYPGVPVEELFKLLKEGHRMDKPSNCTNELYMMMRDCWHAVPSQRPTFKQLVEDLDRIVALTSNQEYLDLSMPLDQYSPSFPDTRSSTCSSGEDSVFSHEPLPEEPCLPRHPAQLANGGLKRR

| SMILES | residual activity (WNK2 (human)) [%] | residual activity (ERBB2 (human)) [%] | residual activity (CLK2 (human)) [%] | residual activity (FGFR1 (human)) [%] | residual activity (GRK7 (human)) [%] | residual activity (MYLK (human)) [%] | residual activity (FGFR2 (human)) [%] | residual activity (PRKCZ (human)) [%] | residual activity (LCK (human)) [%] | residual activity (JAK2 JH1 JH2 (human)) [%] | residual activity (MAP2K1 (human)) [%] | residual activity (CDK1 CCNA2 (human)) [%] | residual activity (STK33 (human)) [%] | residual activity (ACVR1B (human)) [%] | residual activity (ERBB4 (human)) [%] | residual activity (DAPK1 (human)) [%] | residual activity (BRAF (human)) [%] | residual activity (OXSR1 (human)) [%] | residual activity (PTK2B (human)) [%] | residual activity (PASK (human)) [%] | also measured |
| --- | --- | --- | --- | --- | --- | --- | --- | --- | --- | --- | --- | --- | --- | --- | --- | --- | --- | --- | --- | --- | --- |
| O=C1NC(=O)/C(=C/c2ccc3c(c2)OC(F)(F)O3)S1 | 113 | 102 | 96.6 | 94.3 | 102 | 99.4 | 97.6 | 103 | 98.3 | 92.9 | 95.6 | 97.2 | 90.8 | 99.4 | 99.5 | 120 | 96.3 | 97.1 | 110 | 78.2 | residual activity (RPS6KA3 KD1 KD2 (human)): 103%; residual activity [1]: 88.4%; residual activity (DDR2 (human)): 90.1%; residual activity (NUAK1 (human)): 91.8%; residual activity (ROCK2 (human)): 92.4%; residual activity (PLK1 (human)): 92.9%; residual activity (MAP3K14 (human)): 106%; residual activity (PKN2 (human)): 113%; residual activity (CAMK1D (human)): 83.2%; residual activity (CHUK (human)): 88.4%; residual activity (MARK2 (human)): 96.8%; residual activity (NEK6 (human)): 113%; residual activity (ZAP70 (human)): 99.2%; residual activity (CSNK1E (human)): 96.9%; residual activity (AURKB (human)): 102%; residual activity (CSNK2A2 (human)): 29.9%; residual activity (MAP3K11 (human)): 97.8%; residual activity (PRKCB2 (human)): 97.6%; residual activity (CDK6 CCND1 (human)): 95.4%; residual activity (MAPK10 (human)): 102% |
| Cc1ccc(NC2=CC(=O)c3sc(C)nc3C2=O)cc1 | 97.7 | 94.2 | 83.6 | 85.3 | 101 | 90.1 | 91 | 98.2 | 94.2 | 99.1 | 96.1 | 75.9 | 96.6 | 110 | 98.5 | 105 | 96.7 | 86.6 | 90.2 | 89.4 | residual activity (RPS6KA3 KD1 KD2 (human)): 104%; residual activity [1]: 109%; residual activity (DDR2 (human)): 95.6%; residual activity (NUAK1 (human)): 93%; residual activity (ROCK2 (human)): 85.1%; residual activity (PLK1 (human)): 86.8%; residual activity (MAP3K14 (human)): 98.2%; residual activity (PKN2 (human)): 115%; residual activity (CAMK1D (human)): 100%; residual activity (CHUK (human)): 91.9%; residual activity (MARK2 (human)): 91.1%; residual activity (NEK6 (human)): 106%; residual activity (ZAP70 (human)): 95.4%; residual activity (CSNK1E (human)): 93.4%; residual activity (AURKB (human)): 89.8%; residual activity (CSNK2A2 (human)): 87.8%; residual activity (MAP3K11 (human)): 101%; residual activity (PRKCB2 (human)): 93.8%; residual activity (CDK6 CCND1 (human)): 101%; residual activity (MAPK10 (human)): 105% |
